From PubChem BioAssay (NCI) come the findings set out here.

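Cultured in 96-well plates, cells were exposed to test compound for 48 hours across five concentrations. TGI: concentration producing complete growth inhibition.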 Where a SMILES comes first, the peptide text is derived from it. The star is where a group is joined. Boc = CC(C)(C)OC(=O)*

Among the test systems are SNB-75 CNS; OVCAR-5 ovarian; NCI-H226 lung; RXF 393 renal; HOP-62 NSCLC; OVCAR-8 ovarian; SF-268 CNS; K-562 leukemia; 786-0 renal; UO-31 renal; A549 NSCLC; SNB-19 CNS; SN12C renal; SF-539 CNS; COLO 205 colon; DU-145 prostate; SK-OV-3 ovarian.
What all share (test): growth of human tumour cells (NCI), 48 h

On to `Cc1[nH]c2c(c1C)S(=O)(=O)c1cc3ccccc3nc1N2`, for which the TGI in the experiment on SNB-75 CNS worked out at 45.7 µM; in the experiment with OVCAR-5 ovarian it was 59 µM; in the experiment with NCI-H226 lung it was 66.5 µM; in the experiment on RXF 393 renal it was 66.8 µM; with HOP-62 NSCLC it was 39.8 µM; in the experiment with OVCAR-8 ovarian, 30.4 µM. The TGI in the experiment on SF-268 CNS was > 100 µM; in the experiment on K-562 leukemia, > 100 µM; with 786-0 renal it was 30.4 µM; in the experiment on UO-31 renal, 56.9 µM; with A549 NSCLC it was > 100 µM; in the experiment with SNB-19 CNS, 70.6 µM. Besides, the TGI is 36.9 µM with SN12C renal; 25.2 µM with SF-539 CNS; 46.3 µM in the experiment on COLO 205 colon; > 100 µM in the experiment on DU-145 prostate; > 100 µM in the experiment on SK-OV-3 ovarian.
As to `COC(=O)C(Cc1c[nH]c2ccccc12)NC(=O)C(Cc1c[nH]c2ccccc12)NC(=O)C(Cc1c[nH]c2ccccc12)NC(=O)C(Cc1c[nH]c2ccccc12)NC(=O)C(Cc1c[nH]c2ccccc12)NC(=O)C(Cc1c[nH]c2ccccc12)NC(=O)OC(C)(C)C` (stereo not given) (Boc-WWWWWW-OMe; configuration not given here), the TGI in the experiment with SNB-75 CNS, in the experiment on OVCAR-5 ovarian, in the experiment on NCI-H226 lung, with HOP-62 NSCLC, with OVCAR-8 ovarian and in the experiment on SF-268 CNS was > 100 µM in each case. The TGI in the experiment with K-562 leukemia, in the experiment on 786-0 renal, in the experiment with UO-31 renal, in the experiment on A549 NSCLC, with SNB-19 CNS and in the experiment on SN12C renal was > 100 µM throughout. Besides, the TGI in the experiment on DU-145 prostate is > 100 µM.
As for `O=c1[nH]c(=O)n(C2OC(COP(=O)(O)OP(=O)(O)OC3OC(CO)C(O)C(O)C3O)C(O)C2O)cc1F` (stereo not given), the TGI with SNB-75 CNS was > 100 µM; in the experiment on OVCAR-5 ovarian it was 5.33 µM; with NCI-H226 lung, 2.72 µM; with RXF 393 renal, 0.529 µM; in the experiment with HOP-62 NSCLC, 4.3 µM; with OVCAR-8 ovarian it was > 100 µM. In addition, the TGI in the experiment on SF-268 CNS is > 100 µM; in the experiment with K-562 leukemia it was > 100 µM; in the experiment on 786-0 renal, 2.68 µM; in the experiment on UO-31 renal, 2.29 µM; with A549 NSCLC, 8.56 µM; in the experiment with SNB-19 CNS, > 100 µM. The TGI was > 100 µM in the experiment on SN12C renal, 1.49 µM in the experiment on SF-539 CNS, 7.14 µM with COLO 205 colon and > 87.5 µM with SK-OV-3 ovarian.
In the case of `O=C1CC2(c3ccccc3)ON=C(c3ccccc3)N2c2ccccc2N1` (stereo not given), the TGI with SNB-75 CNS, in the experiment with OVCAR-5 ovarian, with NCI-H226 lung, in the experiment on RXF 393 renal, in the experiment on HOP-62 NSCLC and with OVCAR-8 ovarian was > 100 µM throughout. The TGI with SF-268 CNS, in the experiment on K-562 leukemia, in the experiment with 786-0 renal, in the experiment with UO-31 renal, in the experiment on SNB-19 CNS and in the experiment on SN12C renal was > 100 µM each time. The TGI in the experiment on SF-539 CNS is > 100 µM; with COLO 205 colon, > 100 µM; in the experiment on DU-145 prostate, > 100 µM; with SK-OV-3 ovarian, 51.7 µM.
As for `CCc1cc(Cc2cc(Cl)c(NC(=O)C(=O)C3NC(=O)NC3=O)c(CC)c2)cc(Cl)c1NC(=O)C(=O)C1NC(=O)NC1=O` (stereo not given), the TGI in the experiment with SNB-75 CNS was 90.7 µM; in the experiment with OVCAR-5 ovarian, > 100 µM; in the experiment on NCI-H226 lung, > 100 µM; in the experiment with RXF 393 renal, 59.9 µM; in the experiment on HOP-62 NSCLC, > 100 µM; in the experiment with OVCAR-8 ovarian, 58.6 µM. Moreover, the TGI in the experiment on SF-268 CNS, in the experiment with K-562 leukemia, in the experiment on 786-0 renal, in the experiment with UO-31 renal, in the experiment on A549 NSCLC and in the experiment with SNB-19 CNS was > 100 µM throughout. In addition, the TGI with SN12C renal, with SF-539 CNS, in the experiment with COLO 205 colon and in the experiment on SK-OV-3 ovarian was > 100 µM each time.
As to `CN(C)c1ccc(C(=C(c2ccc(N(C)C)cc2)c2ccc(N(C)C)cc2)c2ccc(N(C)C)cc2)cc1`, the TGI in the experiment with SNB-75 CNS was 27.8 µM; in the experiment with OVCAR-5 ovarian it was > 100 µM; with NCI-H226 lung, 36.9 µM; in the experiment with RXF 393 renal, 25.2 µM; with HOP-62 NSCLC, > 100 µM; with OVCAR-8 ovarian it was 44.7 µM. The TGI was 56.4 µM in the experiment with SF-268 CNS; 36.9 µM with K-562 leukemia; 23.7 µM in the experiment with 786-0 renal; 39.9 µM in the experiment with UO-31 renal; 31.4 µM in the experiment on A549 NSCLC; 29.4 µM in the experiment on SNB-19 CNS. Also, the TGI is 35.2 µM in the experiment on SN12C renal, 28 µM with SF-539 CNS, > 100 µM with COLO 205 colon and 41.8 µM in the experiment with SK-OV-3 ovarian.
For the compound `CCOC(=O)C1(C/C=C(/C)Cl)CCCC1=O` (stereo not given), the TGI with SNB-75 CNS, in the experiment on OVCAR-5 ovarian, with NCI-H226 lung, in the experiment on RXF 393 renal, in the experiment on HOP-62 NSCLC and in the experiment with OVCAR-8 ovarian was > 100 µM throughout. Also, the TGI with SF-268 CNS, in the experiment on K-562 leukemia, in the experiment on 786-0 renal, in the experiment with UO-31 renal, in the experiment with A549 NSCLC and in the experiment on SNB-19 CNS was > 100 µM in each case. The TGI with SN12C renal, in the experiment with SF-539 CNS, with COLO 205 colon and with SK-OV-3 ovarian was > 100 µM throughout.
